Reference: publication PMC11433679, “Synthesis, Characterization, and Biological Evaluation of N-Methyl Derivatives of Norbelladine” (Molecules, 2024)
Where “and” joins values, the source holds several entries; their conditions need not be identical. Equal values may be shown once.

How the values were obtained:
dengue virus (DENV) = test: microbe, parasite or virus in culture; type: cell-based; conditions: for SI DENV (selectivity index, ratio CC50/EC50): CC50 Huh7 / EC50 DENV; for EC50: Dengue virus, Huh-7, 72 h, DENVGFP in Huh7 cells, MOI 0.1, 3 days
pseudotyped HIV-1 = test: microbe, parasite or virus in culture; type: cell-based, human immunodeficiency virus (HIV)-1; conditions: for SI HIV-1 (selectivity index, ratio CC50/EC50): CC50 THP-1 / EC50 HIV-1; for EC50: Human immunodeficiency virus 1, THP-1, 72 h, read-out: EC50 HIV-1
[1] = Cytotoxicity assay (Cell-Titer GLO, ATP levels, 72 h); type: cell-based; conditions: human; HCT-8 cells, 72 h treatment, 4–500 µM
From the text: (§1) The human hepatocarcinoma Huh7 cell line (CVCL_0336) was maintained in Dulbecco’s Modified Eagle Medium (DMEM) supplemented with 10% fetal bovine serum (FBS) and 1% penicillin/streptomycin solution (PS, from GIBCO, Fisher Scientific, Toronto, ON, Canada). The human leukemia monocytic THP-1 (CVCL_0006) and adenocarcinoma HCT-8 cell lines (CVCL_2478) were maintained in Roswell Park Memorial Institute (RPMI) medium supplemented with 10% FBS or horse serum, respectively, and 1% PS. All reagents and antibiotics were purchased from GIBCO, Fisher Scientific, Toronto, ON, Canada). Cells were kept in an incubator at 37 °C and 5% CO2.
(§2) In total, 10 × 10^3 Huh7 cells/well, or 5 × 10^4 THP-1 or HCT-8 cells/well were plated in 96-well plates and incubated at 37 °C and 5% CO2. Compounds (4–500 µM, 2-fold dilutions) were added the next day and cytotoxicity was assessed 72 h later by measuring ATP levels with the Cell-Titer GLO assay kit (Promega, Madison, WI, USA). Cell-Titer GLO reagent was added to the plates previously equilibrated to room temperature for 30 min. Plates were mixed for 2 min and incubated for 10 min at room temperature. The luminescence signal was measured with a microplate reader (Synergy H1, Biotek, Dorval, QC, Canada). Viability percentage was calculated as the ratio of the signal of cells exposed to compounds to the signal of cells exposed to solvent (methanol). All experiments were performed at least twice. Median cytotoxic concentrations (CC50) were calculated using GraphPad prism 10.0.2 (GraphPad Software, San Diego, CA, USA).

[2] = target: T1, acetylcholinesterase (AChE) (Electrophorus electricus, UniProt O42275); test: Acetylcholinesterase inhibition, colorimetric (DTNB, acetylthiocholine substrate); type: biochemical, electric eel; conditions: for inhibition at 500 µM: highest tested concentration; for IC50: Nd = >500 μM
T1 construct: purchased Abcam ab138871
T1 sequence (O42275 24-633): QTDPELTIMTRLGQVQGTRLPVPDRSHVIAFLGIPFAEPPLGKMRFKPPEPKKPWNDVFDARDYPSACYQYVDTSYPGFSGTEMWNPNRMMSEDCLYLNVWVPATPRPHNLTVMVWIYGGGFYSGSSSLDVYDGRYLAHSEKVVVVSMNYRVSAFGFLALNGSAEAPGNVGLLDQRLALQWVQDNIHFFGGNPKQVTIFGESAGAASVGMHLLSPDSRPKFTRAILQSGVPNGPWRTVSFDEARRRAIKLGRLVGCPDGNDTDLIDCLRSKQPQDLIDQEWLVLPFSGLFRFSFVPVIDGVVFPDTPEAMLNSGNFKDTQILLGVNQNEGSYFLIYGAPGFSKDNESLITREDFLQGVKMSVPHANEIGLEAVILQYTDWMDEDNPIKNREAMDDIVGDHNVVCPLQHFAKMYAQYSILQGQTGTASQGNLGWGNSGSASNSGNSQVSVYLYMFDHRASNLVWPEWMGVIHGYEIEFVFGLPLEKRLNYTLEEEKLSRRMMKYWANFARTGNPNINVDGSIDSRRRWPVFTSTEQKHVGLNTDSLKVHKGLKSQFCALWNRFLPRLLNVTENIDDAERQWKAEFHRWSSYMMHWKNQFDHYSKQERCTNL
Experimental: (§3) Pharmacological properties specific to Alzheimer’s disease (AD) were tested on acetylcholinesterases (AChEs) from electric eels and butyrylcholinesterase (BuChE) from equine species using a colorimetric kit (ab138871, Abcam, Cambridge, UK), which measures enzyme activity and inhibition. The reaction was carried out in a final volume of 100 µL in 96-well microplates. […] A 5 µL reaction mixture containing equal amounts of acetylthiocholine/butyrylthiocholine (20X) and DTNB (20X) was then added to each well. Subsequently, the enzyme solution was added to a final concentration of 2 U/mL, and absorbance was measured at 412 nm in kinetic mode for 10 min using a microplate reader (Synergy H1, Biotek, Dorval, QC, Canada). DTNB (Bis(3-carboxy-4-nitrophenyl) disulfide, Ellman’s Reagent), acetylthiocholine iodide, and butyrylthiocholine iodide were obtained from Sigma-Aldrich (Oakville, ON, Canada). Galanthamine (50–0.05 µM) and rivastigmine (400–0.4 µM) were used as positive controls for the AChE and BuChE assays, respectively. Compounds showing inhibition during preliminary screenings were selected for further IC50 value assessment using serially diluted concentrations. All experiments were performed at least twice. Inhibition was calculated using the formula [24]:I = 100 × (1 − ΔAi/ΔA0), where ΔAi is the difference in absorbance between two time points in the presence of the inhibitor, and ΔA0 is the difference in absorbance between two-time points in the presence of DMSO or an appropriate solvent.

[3] = target: butyrylcholinesterase (BuChE) (Equus caballus, UniProt P81908); test: Butyrylcholinesterase inhibition, colorimetric (DTNB, butyrylthiocholine substrate); type: biochemical, equine; conditions: for inhibition at 500 µM: highest tested concentration; for IC50: butyrylthiocholine substrate; for fold increase in BuChE inhibition by N-methylation compared to non-N-methylated control: ratio of IC50 values
butyrylcholinesterase (BuChE), sequence (P81908 whole entry): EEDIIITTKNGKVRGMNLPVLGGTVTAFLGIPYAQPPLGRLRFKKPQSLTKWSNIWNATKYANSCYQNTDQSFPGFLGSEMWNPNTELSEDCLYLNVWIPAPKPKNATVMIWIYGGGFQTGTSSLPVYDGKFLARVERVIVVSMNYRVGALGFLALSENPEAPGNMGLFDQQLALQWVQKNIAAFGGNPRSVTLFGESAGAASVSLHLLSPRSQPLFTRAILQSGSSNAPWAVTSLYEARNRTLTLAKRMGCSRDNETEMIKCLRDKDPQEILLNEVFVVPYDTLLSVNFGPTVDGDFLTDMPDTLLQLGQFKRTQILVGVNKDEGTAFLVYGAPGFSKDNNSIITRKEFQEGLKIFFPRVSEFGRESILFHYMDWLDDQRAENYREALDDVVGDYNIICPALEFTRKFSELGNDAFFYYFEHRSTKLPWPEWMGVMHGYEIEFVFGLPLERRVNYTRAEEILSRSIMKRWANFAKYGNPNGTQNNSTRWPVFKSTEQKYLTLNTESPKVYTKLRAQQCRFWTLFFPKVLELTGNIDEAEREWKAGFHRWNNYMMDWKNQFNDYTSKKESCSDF
Experimental: as §3

[4] = Cytotoxicity assay (Cell-Titer GLO, ATP levels, 72 h); type: cell-based, human; conditions: human, 72 h treatment, 4–500 µM
From the text: as §1, §2

[5] = tested on: human coronavirus OC43 (HCoV-OC43); test: Antiviral assay, HCoV-OC43 replication in HCT-8 cells (flow cytometry); type: cell-based, human betacoronavirus OC43; conditions: for EC50: Betacoronavirus 1, OC43, HCT-8, 72 h, read-out: EC50 OC-43; for SI OC-43 (selectivity index, ratio CC50/EC50): CC50 HCT-8 / EC50 OC-43
AChE = tested on: AChE; set-up: method as in earlier work; conditions: ref 19 (Vaněčková et al.); cited from earlier work
Huh7 cells = test: Cytotoxicity assay (Cell-Titer GLO, ATP levels, 72 h); type: cell-based, human; conditions: 72 h treatment, 4–500 µM
From the text: as §1, §2

THP-1 cells = test: as above; type: cell-based, human; conditions: 72 h treatment, 4–500 µM
From the text: as §1, §2

| Structure (SMILES) | SI DENV (selectivity index, ratio CC50/EC50) (dengue virus (DENV)) | EC50 (dengue virus (DENV)) | SI HIV-1 (selectivity index, ratio CC50/EC50) (pseudotyped HIV-1) | EC50 (pseudotyped HIV-1) | CC50 at 72 h [1] | inhibition at 500 µM [2] | IC50 [2] | inhibition at 500 µM [3] | IC50 [3] | CC50 at 72 h ([4]; Huh7 cells) | CC50 at 72 h ([4]; THP-1 cells) | EC50 [5] | SI OC-43 (selectivity index, ratio CC50/EC50) [5] | fold increase in BuChE inhibition by N-methylation compared to non-N-methylated control [3] | anti-AChE activity (AChE) | CC50 (Huh7 cells) | CC50 (THP-1 cells) |
| --- | --- | --- | --- | --- | --- | --- | --- | --- | --- | --- | --- | --- | --- | --- | --- | --- | --- |
| COc1ccc(CNCCc2ccc(O)cc2)cc1OC [3′,4′-O-dimethylnorbelladine] | >3.64 | 137 µM | >2.63 | 190 µM | > 500 µM | 37% | > 500 µM | 94% | 108 µM | > 500 µM | > 500 µM | 84.7 µM | >5.91 |  |  |  |  |
| COc1cc(CNCCc2ccc(O)cc2)ccc1O [3′-O-methylnorbelladine] | >3.62 | 138 µM | >2.83 | 177 µM | > 500 µM | 10% | > 500 µM | 96% | 27.5 µM | > 500 µM | > 500 µM | 74.5 µM | >6.71 |  |  |  |  |
| COc1ccc(CN(C)CCc2ccc(O)cc2)cc1O [4′-O,N-dimethylnorbelladine, 5-(((4-hydroxyphenethyl)(methyl)amino)methyl)-2-methoxyphenol] | 4.81 | 95.8 µM | >4.06 | 123 µM | > 500 µM | 43.6% | > 500 µM | 99% | 10.4 µM | 460 µM | > 500 µM | 42.4 µM | >11.80 | 1.5 fold |  |  |  |
| COc1ccc(CCN(C)Cc2ccc(O)c(OC)c2)cc1 [4′-O-demethylbelladine] |  |  |  |  |  |  |  |  |  |  |  |  |  |  | weak |  |  |
| COc1ccc(CNCCc2ccc(O)cc2)cc1O [4′-O-methylnorbelladine] | >6.28 | 79.6 µM | >3.06 | 163 µM | > 500 µM | 33.6% | > 500 µM | 99% | 16.1 µM | > 500 µM | > 500 µM | 63 µM | >7.93 |  |  |  |  |
| CN(CCc1ccc(O)cc1)Cc1ccc(O)c(O)c1 [N-methylnorbelladine] | 5.70 | 67.7 µM | 5.36 | 42.3 µM | > 500 µM | 31.2% | > 500 µM | 96% | 3.94 µM and 4 µM | 386 µM | 227 µM | 66.8 µM | >7.49 | 2 fold |  | 386 µM | 227 µM |
| Oc1ccc(CCNCc2ccc(O)c(O)c2)cc1 [Norbelladine] | 3.30 | 70.6 µM | 2.22 | 66.9 µM | > 500 µM | 24.5% | > 500 µM | 95% | 8 µM | 233 µM | 148 µM | 55.7 µM | >8.98 |  |  | 233 µM | 148 µM |
